Reference: patent publication US8729035B2, “Synthesis of novel neamine derivatives and use thereof as antibacterial agents” (Universite Joseph Fourier, priority 2008, dated 2014)
Values after ≈ are worked out from the molar mass of the structure shown. Like-named read-outs stand apart in the source and are kept apart here.

Tests used:
Experiment in all cases: MIC determination on r-methylase-expressing resistant Gram (-) bacteria
[1] = tested on: E. coli 06AB003 arm; format: cell-based; conditions: Escherichia coli, 06AB003ARM, 24 h
Method: (§1) The molecules were dissolved in water or DMSO at a concentration of 5 or 10 mg/mL, then the solutions were diluted if necessary. A volume of 200 μL of each of them was put onto a 96-well plate.
(§2) C—Determination of the MIC
(§3) The molecules with a screening score of 10 or 100 were selected to determine their MICs relative to the strains tested.
(§4) As for the validation of the strains, the solution of the molecule selected was diluted by a factor of 2, times 2, using the Biomek2000 robot in 96-well plates to cover a wide range of concentrations. To each of these wells was added a volume of inoculum made from the previous days preculture diluted to 1/100th strength. Each well was repeated. Again, controls of non-contamination, growth and resistance/sensitivity to a reference antibiotic were included in the experiment. The plate was incubated at 37° C., and the kinetics of the bacterial proliferation were monitored over 24 hours, by measuring the OD620 nm at 0, 1, 4, 7, and 24 hours.
(§5) The MIC was the lowest concentration found to be capable of inhibiting bacterial proliferation after 24 hours incubation. Having no previous idea of this value it was possible that it might not fall within the range of dilutions chosen. If this was the case the operation had to be repeated adjusting this range.
(§6) Similar measurements were made on various Gram (−) bacteria. The strains tested were provided by R. Vanhoof (E. coli PAZ505H8101 and L58058.1, P. aeruginosa ATCC 27853, Psa.F03, A. lwoffi A1.88-483), Y. Glupczynski (C. amalonaticus Ca06AB0010), J. C. Pechere (P. aeruginosa PA02, PA03), P. Plésiat (P. aeruginosa PA01, PA21, PA22), H. Schweizer (P. aeruginosa PA405, PA406).

[2] = tested on: C. amalonaticus 06AB0010 arm; format: cell-based; conditions: Citrobacter amalonaticus, 06AB0010ARM
Method: as §1, §2, §3, §4, §5, §6

[3] = tested on: E. aerogenes 06AB008 arm; format: cell-based, Enterobacter aerogenes; conditions: Klebsiella aerogenes, 06AB008ARM, 24 h
Method: as §1, §2, §3, §4, §5, §6

Row | Structure (SMILES) | MIC [1] [µg/mL] | MIC ([2]; 24 h) [µg/mL] | MIC [3] [µg/mL] | MIC ([2]; resistant bacteria expressing an RNA methylation enzyme (r-methylase), one value stated for the three strains together, 24 hours incubation, read-out: MIC) [µg/mL]
1 | NCC[C@H](O)C(=O)N[C@@H]1C[C@H](N)[C@@H](O[C@H]2O[C@H](CN)[C@@H](O)[C@H](O)[C@H]2O)[C@H](O)[C@H]1O[C@H]1O[C@H](CO)[C@@H](O)[C@H](N)[C@H]1O [amikacin] | > 128 | > 128 | > 128 | 
2 | NC[C@H]1O[C@H](O[C@H]2[C@H](O)[C@@H](O[C@H]3O[C@H](CO)[C@@H](O)[C@H](N)[C@H]3O)[C@H](N)C[C@@H]2N)[C@H](N)C[C@@H]1O [tobramycin] | > 128 | > 128 | > 128 | 
3 | NCC1OC(OC2C(N)CC(N)C(OCc3cccc4ccccc34)C2O)C(N)C(OCc2cccc3ccccc23)C1O (stereo not drawn) [3′,6-di1NM, 3′,6-O,O′-di(naphthyl-1-methylene) neamine] | 4 to 16 (≈ 6.64 to 26.5 µM) |  | 4 to 16 (≈ 6.64 to 26.5 µM) | 4 to 16 (≈ 6.64 to 26.5 µM)
